Data taken from patent US20250090614A1, “COMPOSITIONS AND METHODS FOR IMPROVING LUNG FUNCTION” (priority 2023, published 2025).

Legend:
old C57b1/6 mice = assay: Tidal volume by whole-body plethysmography in aged mice; assay type: in vivo, mouse; settings: aged C57BL/6 mice, 25 mg/kg p.o. each substance, 90 days
Method: The experiments were performed in old C57b1/6 mice (28-30 weeks). Table 1 discloses the groups of mice used for the experimentation. C57BL/6 mice were bred and naturally aged in a pathogen-free colony. Mice were group-housed six per cage for the treatment regimen and maintained on a 12-hr light-dark schedule with ad libitum access to food and water. All experiments were designed according to the principles of animal use for gerontological research (Miller, R. A., & Nadon, N. L. (2000). Principles of animal use for gerontological research. Journals of Gerontology. Series A, Biological Sciences and Medical Sciences, 55, B117-B123) [table] The above test substances were administered to the mice for a period of 90 days. Rapamycin was used as a positive control. […] The respiratory muscle function in the study animals was assessed by estimating the Tidal Volume, Minute ventilation, Transdiaphragmatic pressure ([…]) and Respiratory rate. […] In the present study, ventilatory parameters were measured in awake mice during eupnoea (spontaneous breathing of room air) using a whole-body plethysmography system. […] Recordings were taken after 10 min of acclimatization and recorded for one hour. Recorded parameters included tidal volume and minute ventilation

Laminin = Laminin ELISA in lung tissue supernatant of aged mice; assay type: in vivo, mouse; settings: aged C57BL/6 mice, 25 mg/kg p.o. each substance, 90 days
Method: The experiments were performed in old C57b1/6 mice (28-30 weeks). Table 1 discloses the groups of mice used for the experimentation. C57BL/6 mice were bred and naturally aged in a pathogen-free colony. Mice were group-housed six per cage for the treatment regimen and maintained on a 12-hr light-dark schedule with ad libitum access to food and water. All experiments were designed according to the principles of animal use for gerontological research (Miller, R. A., & Nadon, N. L. (2000). Principles of animal use for gerontological research. Journals of Gerontology. Series A, Biological Sciences and Medical Sciences, 55, B117-B123) [table] The above test substances were administered to the mice for a period of 90 days. Rapamycin was used as a positive control. After 90 days of administration experiments were performed to assess the respiratory muscle function, anatomical changes, cellular senescence and immunological changes. Hyperinflation of the lungs may occur with ageing along with destruction of lung parenchyma or loss of supporting structures within the lung parenchyma (Gillooly M, Lamb D. Airspace size in lungs of lifelong non-smokers: effect of age and sex. Thorax. 1993; 48:39-43). […] Laminin was measured using commercially available ELISA Kit (AbCam ELISA Kit) according to the user's manual provided. […]

**Q.** For `O=C(/C=C/c1ccc(O)c(O)c1)O[C@H](Cc1ccc(O)c(O)c1)C(=O)O` [Rosmarinic acid], which tidal volume (old C57b1/6 mice; versus old mice control) is on record?
**A.** increased

**Q.** And the “tidal volume, comparison between treatment groups” value (old C57b1/6 mice; Rapamycin 8 mg/kg p.o. positive control)?
**A.** better than control, and Rapamycin

**Q.** And the expression of laminin (Laminin)?
**A.** increased
